Assay results from patent US6737383B1, “Herbicidal oxadiazolidines” (priority 1999, dated 2004).

Assays:
purple nutsedge = experiment: Test B pre/postemergence purple nutsedge; assay type: in vivo, Cyperus rotundus; conditions: Postemergence
Procedure, shortened: (§1)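 Response is a visual 0-to-10 score relative to untreated plants, where 0 means no effect and 10 means complete control, taken twelve to sixteen days after application. Treatments went onto soil at planting and onto foliage of 1- to 4-leaf plants, using a surfactant-containing non-phytotoxic solvent.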

bamyardgrass = experiment: Test B flood test barnyardgrass; assay type: in vivo, Echinochloa crus-galli
Procedure, shortened: (§2)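 Each value is a visual injury score relative to controls, with 10 meaning complete control and 0 no effect. Evaluation took place twelve to sixteen days after the 2-leaf-stage plants were treated and kept in the greenhouse.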

pigweed = experiment: Test B pre/postemergence pigweed; assay type: in vivo, Amaranthus retroflexus
Procedure, shortened: as §1

cocklebur = experiment: Test B pre/postemergence cocklebur; assay type: in vivo, Xanthium strumarium
Procedure, shortened: as §1

smallflower flatsedge = experiment: Test B flood test smallflower flatsedge; assay type: in vivo, Cyperus difformis
Procedure, shortened: as §2

corn = experiment: Test B pre/postemergence corn; assay type: in vivo, Zea mays
Procedure, shortened: as §1

sugar beet = experiment: Test B pre/postemergence sugar beet; assay type: in vivo, Beta vulgaris
Procedure, shortened: as §1

wheat = experiment: Test B pre/postemergence wheat; assay type: in vivo, Triticum aestivum
Procedure, shortened: as §1

wild oat = experiment: Test B pre/postemergence wild oat; assay type: in vivo, Avena fatua
Procedure, shortened: as §1

crabgrass = experiment: Test B pre/postemergence crabgrass; assay type: in vivo, Digitaria sanguinalis
Procedure, shortened: as §1

bedstraw = experiment: Test B pre/postemergence bedstraw; assay type: in vivo, Galium aparine
Procedure, shortened: as §1

velvetleaf = experiment: Test B pre/postemergence velvetleaf; assay type: in vivo, Abutilon theophrasti
Procedure, shortened: as §1

surinam grass = experiment: Test B pre/postemergence surinam grass; assay type: in vivo, Brachiaria decumbens
Procedure, shortened: as §1

rape = experiment: Test B pre/postemergence rape; assay type: in vivo, Brassica napus
Procedure, shortened: as §1

blackgrass = experiment: Test B pre/postemergence blackgrass; assay type: in vivo, Alopecurus myosuroides
Procedure, shortened: as §1

soybean = experiment: Test B pre/postemergence soybean; assay type: in vivo, Glycine max
Procedure, shortened: as §1

[1] = Rate 62 g/ha, headed Pre-emergence (flood test species), scale 0 to 10 (0 no effect, 10 complete control)
[2] = Rate 125 g/ha, Pre-emergence, flood test species, scale 0 to 10 where 0 is no effect and 10 is complete control
[3] = Rate 250 g/ha, Pre-emergence, flood-test species, scale 0 to 10, 0 is no effect, 10 is complete control
[4] = Rate 500 g/ha, Pre-emergence, flood test species, scale 0 to 10 (0 no effect, 10 complete control)
[5] = Preemergence, Rate 62 g/ha, scale of 0 to 10 where 0 is no effect and 10 is complete control
[6] = Preemergence, Rate 250 g/ha, scale of 0 to 10 where 0 is no effect and 10 is complete control
[7] = Preemergence, Rate 500 g/ha, scale of 0 to 10 where 0 is no effect and 10 is complete control
[8] = Rate 62 g/ha, Postemergence, scale of 0 to 10 where 0 is no effect and 10 is complete control
[9] = Rate 125 g/ha, Postemergence, scale 0 to 10
[10] = Rate 125 g/ha, Preemergence, scale of 0 to 10 where 0 is no effect and 10 is complete control
[11] = Rate 500 g/ha, Postemergence, scale 0 to 10, 0 no effect, 10 complete control

COCCOCn1c(=O)on(C(=O)N(c2ccc(F)cc2)C(C)C)c1=O [Compound 220]
Nutsedge plant response rating (purple nutsedge; Rate 62 g/ha, scale of 0 to 10 where 0 is no effect and 10 is complete control): 0
Nutsedge plant response rating (purple nutsedge; Rate 125 g/ha, scale 0 to 10): 0
Plant response rating (0 to 10; 0 is no effect, 10 is complete control), Nutsedge (purple nutsedge; Rate 250 g/ha): 0
Nutsedge plant response rating (purple nutsedge; Rate 500 g/ha, scale 0 to 10, 0 no effect, 10 complete control): 0
Barnyardgrass plant response rating (bamyardgrass; [1]): 0
Barnyardgrass plant response rating (bamyardgrass; [2]): 0
Barnyardgrass plant response rating (bamyardgrass; [3]): 2
Barnyardgrass plant response rating (bamyardgrass; [4]): 3
Redroot pigweed plant response rating (pigweed; [5]): 0
Redroot pigweed plant response rating (pigweed; [6]): 8
Plant response rating, Redroot pigweed (pigweed; [7]): 10
Redroot pigweed plant response rating (pigweed; [8]): 0
Redroot pigweed plant response rating (pigweed; [9]): 1
Redroot pigweed plant response rating (pigweed; [10]): 2
Plant response rating (0 to 10; 0 is no effect, 10 is complete control), Redroot pigweed (pigweed; Rate 250 g/ha, Postemergence): 3
Redroot pigweed plant response rating (pigweed; [11]): 4
Cocklebur plant response rating (cocklebur; [5]): 0
Plant response rating, Cocklebur (cocklebur; [7]): 5
Cocklebur plant response rating (cocklebur; [8]): 0
Cocklebur plant response rating (cocklebur; [9]): 0
Cocklebur plant response rating (cocklebur; [10]): 0
Plant response rating (0 to 10; 0 is no effect, 10 is complete control), Cocklebur (cocklebur; Rate 250 g/ha, Postemergence): 3
Cocklebur plant response rating (cocklebur; [11]): 5
S. Flatsedge plant response rating (smallflower flatsedge; [1]): 0
S. Flatsedge plant response rating (smallflower flatsedge; [2]): 0
S. Flatsedge plant response rating (smallflower flatsedge; [3]): 0
S. Flatsedge plant response rating (smallflower flatsedge; [4]): 0
Corn plant response rating (corn; [5]): 0
Corn plant response rating (corn; [6]): 5
Plant response rating, Corn (corn; [7]): 7
Corn plant response rating (corn; [8]): 0
Corn plant response rating (corn; [9]): 2
Corn plant response rating (corn; [10]): 3
Plant response rating (0 to 10; 0 is no effect, 10 is complete control), Corn (corn; Rate 250 g/ha, Postemergence): 6
Corn plant response rating (corn; [11]): 6
Sugarbeets plant response rating (sugar beet; [5]): 5
Sugarbeets plant response rating (sugar beet; [6]): 8
Plant response rating, Sugarbeets (sugar beet; [7]): 8
Sugarbeets plant response rating (sugar beet; [8]): 0
Sugarbeets plant response rating (sugar beet; [9]): 0
Sugarbeets plant response rating (sugar beet; [10]): 6
Plant response rating (0 to 10; 0 is no effect, 10 is complete control), Sugarbeets (sugar beet; Rate 250 g/ha, Postemergence): 2
Sugarbeets plant response rating (sugar beet; [11]): 2
Wheat plant response rating (wheat; [5]): 6
Wheat plant response rating (wheat; [6]): 8
Plant response rating, Wheat (wheat; [7]): 8
Wheat plant response rating (wheat; [8]): 3
Wheat plant response rating (wheat; [9]): 4
Wheat plant response rating (wheat; [10]): 7
Plant response rating (0 to 10; 0 is no effect, 10 is complete control), Wheat (wheat; Rate 250 g/ha, Postemergence): 6
Wheat plant response rating (wheat; [11]): 6
Wild oats plant response rating (wild oat; [5]): 3
Wild oats plant response rating (wild oat; [6]): 7
Plant response rating, Wild oats (wild oat; [7]): 8
Wild oats plant response rating (wild oat; [8]): 0
Wild oats plant response rating (wild oat; [9]): 0
Wild oats plant response rating (wild oat; [10]): 5
Plant response rating (0 to 10; 0 is no effect, 10 is complete control), Wild oats (wild oat; Rate 250 g/ha, Postemergence): 2
Wild oats plant response rating (wild oat; [11]): 2
Crabgrass plant response rating (crabgrass; [5]): 7
Crabgrass plant response rating (crabgrass; [6]): 8
Plant response rating, Crabgrass (crabgrass; [7]): 10
Crabgrass plant response rating (crabgrass; [8]): 3
Crabgrass plant response rating (crabgrass; [9]): 5
Crabgrass plant response rating (crabgrass; [10]): 7
Plant response rating (0 to 10; 0 is no effect, 10 is complete control), Crabgrass (crabgrass; Rate 250 g/ha, Postemergence): 7
Crabgrass plant response rating (crabgrass; [11]): 9
Bedstraw plant response rating (bedstraw; [5]): 0
Bedstraw plant response rating (bedstraw; [6]): 10
Plant response rating, Bedstraw (bedstraw; [7]): 10
Bedstraw plant response rating (bedstraw; [8]): 6
Bedstraw plant response rating (bedstraw; [9]): 8
Bedstraw plant response rating (bedstraw; [10]): 4
Plant response rating (0 to 10; 0 is no effect, 10 is complete control), Bedstraw (bedstraw; Rate 250 g/ha, Postemergence): 8
Bedstraw plant response rating (bedstraw; [11]): 9
Velvetleaf plant response rating (velvetleaf; [5]): 1
Velvetleaf plant response rating (velvetleaf; [6]): 4
Plant response rating, Velvetleaf (velvetleaf; [7]): 8
Velvetleaf plant response rating (velvetleaf; [8]): 0
Velvetleaf plant response rating (velvetleaf; [9]): 0
Velvetleaf plant response rating (velvetleaf; [10]): 3
Plant response rating (0 to 10; 0 is no effect, 10 is complete control), Velvetleaf (velvetleaf; Rate 250 g/ha, Postemergence): 2
Velvetleaf plant response rating (velvetleaf; [11]): 2
B. signalgrass plant response rating (surinam grass; [5]): 7
B. signalgrass plant response rating (surinam grass; Preemergence, Rate 250 g/ha, scale 0 to 10, 0 is no effect, 10 is complete control): 8
Plant response rating, B. signalgrass (surinam grass; [7]): 8
B. signalgrass plant response rating (surinam grass; [8]): 2
B. signalgrass plant response rating (surinam grass; Rate 125 g/ha, Postemergence, scale 0 (no effect) to 10 (complete control)): 7
B. signalgrass plant response rating (surinam grass; [10]): 7
Plant response rating (0 to 10; 0 is no effect, 10 is complete control), B. signalgrass (surinam grass; Rate 250 g/ha, Postemergence): 8
B. signalgrass plant response rating (surinam grass; [11]): 8
Rape plant response rating (rape; [5]): 1
Rape plant response rating (rape; [6]): 8
Plant response rating, Rape (rape; [7]): 8
Rape plant response rating (rape; [8]): 0
Rape plant response rating (rape; [9]): 0
Rape plant response rating (rape; [10]): 6
Plant response rating (0 to 10; 0 is no effect, 10 is complete control), Rape (rape; Rate 250 g/ha, Postemergence): 3
Rape plant response rating (rape; [11]): 4
Blackgrass plant response rating (blackgrass; [5]): 8
Blackgrass plant response rating (blackgrass; [6]): 10
Plant response rating, Blackgrass (blackgrass; [7]): 10
Blackgrass plant response rating (blackgrass; [8]): 5
Blackgrass plant response rating (blackgrass; [9]): 7
Blackgrass plant response rating (blackgrass; [10]): 9
Plant response rating (0 to 10; 0 is no effect, 10 is complete control), Blackgrass (blackgrass; Rate 250 g/ha, Postemergence): 8
Blackgrass plant response rating (blackgrass; [11]): 8
Soybean plant response rating (soybean; [5]): 0
Soybean plant response rating (soybean; [6]): 0
Plant response rating, Soybean (soybean; [7]): 3
Soybean plant response rating (soybean; [8]): 5
Soybean plant response rating (soybean; [9]): 5
Soybean plant response rating (soybean; [10]): 0
Plant response rating (0 to 10; 0 is no effect, 10 is complete control), Soybean (soybean; Rate 250 g/ha, Postemergence): 7
Soybean plant response rating (soybean; [11]): 7
